Experimental data as given in ChEMBL document CHEMBL3352083, “Antibacterial activity of novel benzopolycyclic amines” (Bioorg Med Chem, 2015).
≈ marks a conversion by molar mass, not a printed value. Calls of active or inactive are those of the source. No cut-off for these calls is given here.

Experiments:
Pseudomonas aeruginosa = experiment: Antimicrobial activity against Pseudomonas aeruginosa PAO1 CECT 4122 ATCC 15692 incubated for 18 hrs by microplate reader based assay; assay type: functional; details: for MIC: read-out: MIC100
Staphylococcus aureus [1] = experiment: Antimicrobial activity against Staphylococcus aureus CECT 86 ATCC 12600 incubated for 18 hrs by microplate reader based assay; assay type: functional; details: CECT 86 ATCC 12600, 18 h; for MIC: read-out: MIC100
Staphylococcus aureus [2] = experiment: Anti-biofilm activity against Staphylococcus aureus CECT 86 ATCC 12600 incubated for 24 to 48 hrs; assay type: functional
Burkholderia cenocepacia = experiment: Antimicrobial activity against Burkholderia cenocepacia J2315 incubated for 18 hrs by microplate reader based assay; assay type: functional; details: J2315, 18 h
Staphylococcus aureus [3] = experiment: Antimicrobial activity against methicillin-resistant Staphylococcus aureus incubated for 18 hrs by microplate reader based assay; assay type: functional
[4] = Antimicrobial activity against Enterococcus faecalis CECT 481 ATCC 19433 incubated for 18 hrs by microplate reader based assay; assay type: functional, Enterococcus faecalis ATCC 19433; details: CECT 481, 18 h
[5] = test system: Staphylococcus epidermidis; experiment: Antimicrobial activity against Staphylococcus epidermidis CECT 231 ATCC 1798 incubated for 18 hrs by microplate reader based assay; assay type: functional; details: CECT 231 ATCC 1798, 18 h
[6] = Antimicrobial activity against Streptococcus mutans CECT 479 ATCC 25175 incubated for 18 hrs by microplate reader based assay; assay type: functional, Streptococcus mutans ATCC 25175; details: CECT 479, 18 h
[7] = Toxicity against macrophages (unknown origin) assessed as reduction in cell viability after 24 to 48 hrs by MTT assay; assay type: cell-based, Macrophage
[8] = Selectivity index, ratio of CC50 for macrophages (unknown origin) to MIC50 for Streptococcus mutans CECT 479 ATCC 25175; assay type: functional
[9] = Selectivity index, ratio of CC50 for macrophages (unknown origin) to MIC50 for Staphylococcus aureus CECT 86 ATCC 12600; assay type: functional
[10] = Selectivity index, ratio of CC50 for macrophages (unknown origin) to MIC50 for methicillin-resistant Staphylococcus aureus; assay type: functional
[11] = Selectivity index, ratio of CC50 for macrophages (unknown origin) to MIC50 for Enterococcus faecalis CECT 481 ATCC 19433; assay type: functional
Staphylococcus aureus [12] = experiment: Bacteriolytic activity against Staphylococcus aureus CECT 86 ATCC 12600 at 36 uM incubated for 3 hrs by live/dead assay; assay type: functional, organism-based
[13] = Selectivity index, ratio of CC50 for macrophages (unknown origin) to MIC50 for Staphylococcus epidermidis CECT 231 ATCC 1798; assay type: functional
[14] = PAO1 CECT 4122 ATCC 15692, 18 h

O=C(O)c1cn(C2CC2)c2cc(N3CCNCC3)c(F)cc2c1=O [CIPROFLOXACIN]
MIC50 (Pseudomonas aeruginosa; [14]): 1.2 µM (≈ 0.398 µg/mL)
MIC50 (Staphylococcus aureus [1]): 0.3 µM (≈ 0.0994 µg/mL)

CCN(CC)C12CC3CC(C)(CC(C1)c1ccccc13)O2
MIC50 (Pseudomonas aeruginosa): inactive
MIC50 (Staphylococcus aureus [1]): > 1000 µM

c1ccc(CN(Cc2ccccc2)C23CC4CC(CC(C2)c2ccccc24)O3)cc1
MIC50 (Pseudomonas aeruginosa): inactive
MIC50 (Staphylococcus aureus [1]): > 1000 µM

Cl.NC12CC3CC(Cl)(CC(C1)c1ccccc13)C2
MBIC50 (Staphylococcus aureus [2]): 45 µM
MIC50 (Pseudomonas aeruginosa; [14]): 1250 µM
MIC (Pseudomonas aeruginosa; [14]): > 1250 µM
MIC50 (Burkholderia cenocepacia): < 125 µM
MIC (Burkholderia cenocepacia; read-out: MIC100): > 250 µM
MIC50 (Staphylococcus aureus [3]): 75 µM
MIC (Staphylococcus aureus [3]; read-out: MIC100): < 180 µM
MIC50 (Staphylococcus aureus [1]): 36 µM
MIC (Staphylococcus aureus [1]): < 156 µM
MIC50 [4]: 60 µM
MIC ([4]; read-out: MIC100): > 250 µM
MIC50 [5]: 75 µM
MIC ([5]; read-out: MIC100): < 250 µM
MIC50 [6]: 60 µM
MIC ([6]; read-out: MIC100): > 250 µM
CC50 [7]: 363 µM
Selectivity Index [8]: 6.05
Selectivity Index [9]: 10.1
Selectivity Index [10]: 4.84
Selectivity Index [11]: 6.05
Activity (Staphylococcus aureus [12]): Active
Selectivity Index [13]: 4.84

CN(C)C12CC3CC(F)(CC(C1)c1ccccc13)C2
MIC50 (Pseudomonas aeruginosa): inactive
MIC50 (Staphylococcus aureus [1]): > 1000 µM

CC12CC3CC(N)(CC(C1)c1ccccc13)C2
MIC50 (Pseudomonas aeruginosa): inactive
MIC50 (Staphylococcus aureus [1]): > 1000 µM

CN(C)C12CC3CC(O)(CC(C1)c1ccccc13)C2
MIC50 (Pseudomonas aeruginosa; [14]): < 2500 µM
MIC (Pseudomonas aeruginosa; [14]): 5000 µM (≈ 1290 µg/mL)
MIC50 (Staphylococcus aureus [1]): > 1000 µM
MIC (Staphylococcus aureus [1]): > 10000 µM
CC50 [7]: > 100 µM

CC(=O)NC12CC3CC(C)(CC(C1)c1ccccc13)O2
MIC50 (Pseudomonas aeruginosa): inactive
MIC50 (Staphylococcus aureus [1]): > 1000 µM

CC12CC3CC(NCc4ccccc4)(CC(C1)c1ccccc13)C2
MIC50 (Pseudomonas aeruginosa): inactive
MIC50 (Staphylococcus aureus [1]): > 1000 µM

CN(C)C12CC3CC(C1)c1ccccc1C(C3)C2
MIC50 (Pseudomonas aeruginosa): inactive
MIC50 (Staphylococcus aureus [1]): 304 µM (≈ 73.4 µg/mL)
MIC (Staphylococcus aureus [1]): < 625 µM
CC50 [7]: 44.5 µM
Selectivity Index [9]: 0.15

CN(C)C12CC3CC(Cl)(CC(C1)c1ccccc13)C2
MIC50 (Staphylococcus aureus [1]): < 625 µM
MIC (Staphylococcus aureus [1]): < 1250 µM

NC12CC3CC(F)(CC(C1)c1ccccc13)C2
MIC50 (Pseudomonas aeruginosa): inactive
MIC50 (Staphylococcus aureus [1]): 95 µM (≈ 22 µg/mL)
MIC (Staphylococcus aureus [1]): < 312 µM

NC12CC3CC(F)(CC(C1)c1cc([N+](=O)[O-])ccc13)C2 (stereo not given)
MIC50 (Staphylococcus aureus [1]): 125 µM (≈ 34.5 µg/mL)
MIC (Staphylococcus aureus [1]): < 312 µM

NC12CC3CC(C1)c1ccccc1C(C3)C2
MIC50 (Pseudomonas aeruginosa): inactive
MIC50 (Staphylococcus aureus [1]): 17 µM (≈ 3.63 µg/mL)
MIC (Staphylococcus aureus [1]): > 39 µM
CC50 [7]: 58.5 µM
Selectivity Index [9]: 3.4

CN(C)C12CC3CC(C)(CC(C1)c1ccccc13)O2
MIC50 (Pseudomonas aeruginosa): inactive
MIC50 (Staphylococcus aureus [1]): > 1000 µM

CN(Cc1ccccc1)C12CC3CC(CC(C1)c1ccccc13)O2
MIC50 (Pseudomonas aeruginosa): inactive
MIC50 (Staphylococcus aureus [1]): > 1000 µM

CN(C)C12CC3CC(C)(CC(C1)c1ccccc13)C2
MIC50 (Pseudomonas aeruginosa): inactive
MIC50 (Staphylococcus aureus [1]): > 1000 µM

Nc1ccc2c(c1)C1CC3(N)CC2CC(F)(C1)C3 (stereo not given)
MIC50 (Staphylococcus aureus [1]): < 375 µM
MIC (Staphylococcus aureus [1]): < 1250 µM

NC12CC3CC(CC(C1)c1ccccc13)O2
MIC50 (Pseudomonas aeruginosa): inactive
MIC50 (Staphylococcus aureus [1]): > 1000 µM

NNC12CC3CC(CC(C1)c1ccccc13)O2
MIC50 (Pseudomonas aeruginosa): inactive
MIC50 (Staphylococcus aureus [1]): > 1000 µM

CN(C)C12CC3CC(F)(CC(C1)c1cc([N+](=O)[O-])ccc13)C2 (stereo not given)
MIC50 (Staphylococcus aureus [1]): < 425 µM
MIC (Staphylococcus aureus [1]): < 1250 µM

C#CCNC12CC3CC(CC(C1)c1ccccc13)O2
MIC50 (Pseudomonas aeruginosa): inactive
MIC50 (Staphylococcus aureus [1]): > 1000 µM

CC12CC3CC(NCC(N)=O)(CC(C1)c1ccccc13)C2
MIC50 (Pseudomonas aeruginosa): inactive
MIC50 (Staphylococcus aureus [1]): > 1000 µM

c1ccc(CNC23CC4CC(CC(C2)c2ccccc24)O3)cc1
MIC50 (Pseudomonas aeruginosa): inactive
MIC50 (Staphylococcus aureus [1]): > 1000 µM

CN(Cc1ccccc1)C12CC3CC(C)(CC(C1)c1ccccc13)C2
MIC50 (Pseudomonas aeruginosa): inactive
MIC50 (Staphylococcus aureus [1]): > 1000 µM
